Laboratory results from patent US20220389013A1, “PYRIDOPYRIMIDINONE COMPOUNDS AND APPLICATIONS THEREOF” (BeBetter Med Inc., priority 2020, published 2022).
Like-named read-outs stand apart in the source and are kept apart here.

Tests used:
[1] = Pharmacokinetic (PK) experiment in rats by gavage; type: in vivo; conditions: rat, plasma, po, male SD rats, 20 mg/kg
H358 xenograft tumor = experiment: H358 human non-small cell lung cancer subcutaneous mouse xenograft model, anticancer activity; type: in vivo, BALB/c nude mice; conditions: 100 mg/kg, po, qd, 26 days
Experimental: In this experiment, the anticancer activities of compounds 73-1 and 90-1 in the subcutaneous tumor model of H358 human non-small cell lung cancer xenograft mice, and the dose-response relationship of compound 73-1 in inhibiting the growth of H358 xenograft tumors were investigated. […] When H358 cells were cultured to a sufficient number, cells were collected. […] Vernier calipers were used to measure the size of the tumor. The formula for calculating the tumor volume is: tumor volume=(length×width^2)/2, and the formula for calculating the relative tumor proliferation rate T/C value is: T/C (%)=100×ΔT/ΔC (ΔT>0) or T/T (%)=100×ΔT/T0 (ΔT<0). ΔT is the difference of tumor volume in the treatment group, ΔC is the difference of tumor volume in the vehicle control group, and T0 is the tumor volume in the treatment group before administration.
The dosage of the all groups, except the vehicle control group, was 100 mg/kg, 10 mL/kg orally administered by gavage, once a day. […] All the groups were administered continuously for 26 days.

[2] = system: non-small cell lung cancer (NSCLC); conditions: cited from earlier work
mouse tumors = conditions: mouse experiments, alone or combined; cited from earlier work
[3] = Caco-2 cell transmembrane transport experiment; conditions: human, pH 7.4, 37° C., 90 min; for Papp A→B at 90 min, 10 μM: apical to basolateral; for Papp B→A at 90 min, 10 μM: basolateral to apical
Description: (§1) In this experiment, a monolayer of Caco-2 cells was used to assess drug penetration. […] The apparent permeability coefficient from apical to basolateral (Papp A-B) and the basolateral to apical permeability coefficient (Papp B-A) of compounds represent the ability of the compound to be transported in both directions, respectively.
(§2) Apparent permeability coefficient (Papp)=(the volume of the receiver chamber/the filter surface area×culture time))×(the drug concentration of receiver chamber at the end of culture/(the drug concentration of donor chamber at the initial culture×dilution factor)
(§3) In this experiment, Millipore cell culture plates (PSHT 010 R5): membrane area=0.7 cm^2, recipient side volume=0.8 mL (A-to-B) or 0.4 mL (B-to-A), incubation time=90 minutes.

Caco-2 cell = Caco-2 cell transmembrane transport experiment; conditions: 10 μM, pH 7.4, 37° C., 90 min
Description: as §1, §2, §3

[4] = system: MIA Paca2 T2 xenograft tumor; experiment: MIA Paca2 T2 human pancreatic cancer xenograft mouse subcutaneous model
Experimental: MIAPaca2 cells were cultured to sufficient numbers in DMEM containing 10% fetal bovine serum and 2.5% horse serum, then harvested. 5 million cells suspended in 0.1 mL of serum-free medium and Matrigel (1:1, v/v) were injected subcutaneously into the right flank area of each mouse, carefully avoiding blood vessels and serially passaged 2 times in animals. The size of the tumor was measured using a vernier caliper, and the method for calculating the tumor volume and T/C value was the same as above. […] The compounds were respectively dissolved in 30% sulfobutyl-β-cyclodextrin (SBE-β-CD) and 1.5 equivalent of 1 M HCl (pH 4-5) at the corresponding concentrations. 10 mL/kg was orally administered continuously by gavage for 28 days.

[5] = 13 evaluable patients, highest dose of 960 mg

C=CC(=O)N1CCN(c2nc(=O)n(-c3c(C)ccnc3C(C)C)c3nc(-c4c(O)cccc4F)c(F)cc23)[C@@H](C)C1 (atropisomer, axis not shown) [AMG510, reference compound]
AUC(0-inf) [1]: 3430 ng·h/mL
Cmax [1]: 3250 ng/mL
Tmax [1]: 0.33 h
half-life [1]: 6.76 h
AUC(0-t) ([1]; read-out: AUC0-24): 3370 ng·h/mL
Changes of body weight (%) (H358 xenograft tumor): 16.4%
effect on tumor (in words) (H358 xenograft tumor): shrink the tumor
tumor suppressor T/C value (%) (H358 xenograft tumor): −93.8%
DCR [2, 5]: 100%
ORR [2, 5]: 54%
partial response (PR) [2, 5]: 54%
disease control rate (DCR) ([2]; 23 evaluable NSCLC patients): 96%
objective response rate (ORR) ([2]; 23 evaluable NSCLC patients): 48%
partial response (PR) ([2]; 23 evaluable NSCLC patients): 48%
progressive disease (PD) ([2]; 23 evaluable NSCLC patients): 4%
dose-limiting toxicity and adverse reactions above grade IV ([2]; phase I patients): No dose-limiting toxicity (DLT) and drug-related adverse reactions above grade IV were found
tolerability (in words) ([2]; phase I patients): well tolerated
mice whose tumor completely disappeared (mouse tumors): 10%
Papp A→B at 90 min, 10 μM ([3]; Caco-2, pH 7.4, Papp A-B Sample_01, 10 μM): 5.83 ×10⁻⁶ cm/s
Papp A→B at 90 min, 10 μM ([3]; Caco-2, pH 7.4, Papp A-B Sample_02, 10 μM): 4.94 ×10⁻⁶ cm/s
Papp A→B at 90 min, 10 μM ([3]; Caco-2, pH 7.4, Papp A-B mean value, 10 μM): 5.39 ×10⁻⁶ cm/s
Papp B→A at 90 min, 10 μM ([3]; Caco-2, pH 7.4, Papp B-A Sample_01, 10 μM): 27.9 ×10⁻⁶ cm/s
Papp B→A at 90 min, 10 μM ([3]; Caco-2, pH 7.4, Papp B-A Sample_02, 10 μM): 39.1 ×10⁻⁶ cm/s
Papp B→A at 90 min, 10 μM ([3]; Caco-2, pH 7.4, Papp B-A mean value, 10 μM): 33.5 ×10⁻⁶ cm/s
efflux rate Papp(B-A)/Papp(A-B) (Caco-2 cell): 6.22
Changes of body weight (%) ([4]; 100 mg/kg, po, qd, 28 days): 13.8%
effect on tumor (in words) ([4]; 28 days oral, 73-1 50 mg/kg bid, AMG510 100 mg/kg qd): shrink the tumor
